Results published in BindingDB's records for patent US10774051 (SHIONOGI & CO., LTD., 2020).

Target: T1, P2X purinoceptor 7 [Y155H,R270H] (Homo sapiens, UniProt Q99572, R270H/Y155H)
T1 construct: gene P2RX7
Experiment: Evaluation of a Human P2X7 Receptor Inhibitory Activity
Experimental: Stably expressing cell line (1321N1 cell transfected with the human P2X7 receptor gene (GenBank accession number NM_002562.5 including T606C and G952A SNP)) was used. The cells were seeded in a 384-well microtiter plate at a concentration of 8000 cells/well and cultured in the medium (10% fetal bovine serum, 25 mM HEPES, 1% penicillin and streptomycin in DMEM) for one day at 37° C. under 5% carbon dioxide atmosphere. After replacing with 20 μL of the HBSS buffer (20 mM HEPES, 55.6 mM D-glucose, 1×HBSS(−), pH7.4-7.5), 15 μL of 17.3 μM Yo-Pro solution in the HBSS buffer was added. The plate was placed in high-throughput cellular screening system FLIPR TETRA (Molecullar Devices, LLC.) and 15 μL of 130 μM BzATP solution in the HBSS buffer was added. Measurement of fluorescence intensity by FLIPR TETRA was started. After eight minutes, 15 μL of DMSO solutions containing different concentrations of the compound of the present invention as prepared by dilution with the HBSS buffer were dispensed to each well through the built-in automatic dispenser, and the measurement of fluorescence intensity was continued for 20 minutes. […] Changing values of fluorescence intensity by the compound of the present invention were calculated by difference between maximum and minimum fluorescence intensity for 20 minutes. IC50 was calculated using logistic approximation.

T1 sequence (Q99572 whole entry Y155H/R270H, looked up): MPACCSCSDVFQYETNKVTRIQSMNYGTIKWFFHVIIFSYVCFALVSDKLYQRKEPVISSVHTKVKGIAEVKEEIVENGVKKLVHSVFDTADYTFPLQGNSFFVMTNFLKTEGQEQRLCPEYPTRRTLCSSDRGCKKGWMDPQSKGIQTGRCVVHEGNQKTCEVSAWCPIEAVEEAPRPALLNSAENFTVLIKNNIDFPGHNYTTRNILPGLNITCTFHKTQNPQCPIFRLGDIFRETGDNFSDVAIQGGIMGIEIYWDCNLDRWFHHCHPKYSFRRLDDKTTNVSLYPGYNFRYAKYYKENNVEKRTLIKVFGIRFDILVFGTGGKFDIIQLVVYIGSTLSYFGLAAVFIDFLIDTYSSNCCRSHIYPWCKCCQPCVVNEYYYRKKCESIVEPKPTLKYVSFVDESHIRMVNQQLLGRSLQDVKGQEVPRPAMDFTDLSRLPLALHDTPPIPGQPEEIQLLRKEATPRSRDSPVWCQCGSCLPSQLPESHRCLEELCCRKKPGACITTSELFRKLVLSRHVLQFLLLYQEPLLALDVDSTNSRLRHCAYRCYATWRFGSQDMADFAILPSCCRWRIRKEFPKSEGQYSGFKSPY

## COc1cn(Cc2cc(F)c(F)c(F)c2)c(Nc2cccc(Cl)c2C)nc1=O [US10774051, Compound I-0004]
  IC50: < 0.01 µM
